Measurements reported in patent US20020082391A1, “Human occludin, its uses and enhancement of drug absorption using occludin inhibitors” (priority 1996, published 2002).

Key:
[1] = system: occludin-transfected fibroblasts (NRK cell clone, N2occ cells); test: Cell adhesion (suspended cell aggregation) assay, occludin-transfected NRK fibroblasts (N2occ); assay type: cell-based, rat; details: for inhibition of occludin-induced adhesion: NRK cell clone, peptide at 100 μM, 80 minutes
Procedure: Peptides were added in equal volumes of PBS at the start of the incubation period; extent of aggregation is shown after 80 minutes of incubation. Loop peptides represent contiguous sequences in the first extracellular loop; the internal peptide has the same pI as loop peptide #1. Peptide sequences are given in the Examples section. One of three experiments with identical results is shown.
For immunofluorescent localization studies, cells were grown on glass coverslips. […] MDCK cells were transfected and induced with sodium butyrate as described above and stable cells lines were plated and induced as described for immunoblots. Cells were washed with PBS, fixed in 1% paraformaldehyde in PBS, extracted with 0.1% Triton-X 100 and quenched with 50 mM NH4Cl in PBS. In experiments to test the accessibility to the anti-peptide #1 antibody, incubation of the primary antibody was performed without permeabilization of cells with Triton-X 100. Cells were blocked for 1 hour in PBS plus 2% goat serum, incubated in primary antibodies (anti-VSV-G at 10 ug/ml, guinea pig anti-occludin at 1:250, and anti-ZO-1 at 1:300; affinity-purified anti-peptide #1 antibody at 1:10) for 1 hour, washed and incubated in affinity-purified secondary antibodies (1:100) for 1 hour. Cells were washed, dipped in H2O and mounted in Vectashield (Vector Laboratories). The samples were examined with a Nikon Microfot-FX epifluorescence microscope; photographs were taken with TMAX400 film (Kodak, Rochester, NY) using the automatic exposure setting. Cell Adhesion Assay Adhesion of stably transfected cell lines was measured by a modification of the procedure described by Wesseling, J., et al., Mol. Biol. Cell 7:565-577 (1996). Cell lines were plated and induced with sodium butyrate as described above. Cell layers were rinsed twice with Ca^2+-Mg^2+-free PBS and then incubated for 30 minutes in Ca^2+-Mg^2+-free PBS plus 1 mM EDTA and 0.1 mg/ml DNAse. After 30 minutes, cells were mechanically dissociated, counted and resuspended at a concentration of 2.5×10^5 cells/ml in Ca^2+-Mg^2+-free PBS, 1 mM EDTA and 0.1 mg/ml DNAse. For each condition, the adhesion assay was performed in duplicate in two 50-ml conical tubes on a rotating platform at 80 rpm at 25° C. At each time point, the number of particles in two 175 ul aliquot of each tube was determined in a Coulter Counter (Hialeah, FL). The amount of adhesion was represented by Nt/N0, where N0 was the initial number of particles in each sample (the starting number of single cells), and Nt was the number at each time point. 100% of cells were single at the beginning of all assays, as determined by phase-contrast microscopy. Some experiments were performed in the presence of the peptides described above.
The ability of transfected occludin to confer adhesion onto fibroblast cell lines was assessed using a suspended cell aggregation assay (Wesseling, J., et al., Mol. Biol. Cell 7: 565-577 (1996)). All cells were counted as single particles at the beginning of the assay and any decrease in the fraction of particles over the 80 minute assay was the result of aggregates which are excluded by the Coulter Counter. Aggregation was qualitatively confirmed by light microscopic inspection and correlated with results quantified by the Coulter Counter. Immunofluorescence confirmed that ZO-1 and occludin are clustered between adherent cells after the 80 minute assay. […]

Caco-2 cells = test: Transepithelial electrical resistance of Caco-2 monolayers after low calcium medium; assay type: cell-based, human; details: Caco-2, peptides at final concentration 100 μM, FIG. 2
Procedure: FIG. 2 is a graph showing inhibition of occludin-dependent intercellular adhesion using extracellular loop peptides corresponding to the N-terminal half of occludin extracellular loop #1 (peptide 1, SEQ ID NO 3) and the C-terminal half of extracellular loop #1 (peptide 2, SEQ ID NO 4) compared with an irrelevant peptide (peptide 3, SEQ ID NO 6). Caco-2 cells were plated on Falcon transwell cell culture inserts in DMEM supplemented with 10% fetal bovine serum and allowed to attach for 24 hours. Confluent monolayers were washed three times with calcium- and magnesium-free phosphate buffered saline and incubated in low calcium medium (supplemented with 5% dialyzed fetal bovine serum) for 24 hours. Transepithelial electrical ressitance was measured (time 0) and an equal volume of 2× DMEM/20% fetal bovine serum was added to all wells. To some wells, peptides were added with the fresh media. All peptides were added to a final concentration of 100 μM; transepithelial electrical resistance was measured in 3 wells of each treatment condition. Symbols represent the mean and standard deviation of each measurement.
Introduction of occludin into fibroblasts causes them to become adhesive. […] FIG. 2 provides data showing this same peptide inhibits transmonolayer electrical resistance in cultured human colonic epithelial cells. Thus, the peptides are occludin inhibitors.

[2] = system: occludin-transfected fibroblasts (Rat-1 cell clone); test: Cell adhesion (suspended cell aggregation) assay, occludin-transfected Rat-1 fibroblasts; assay type: cell-based; details: peptide at 100 μM
Procedure: For immunofluorescent localization studies, cells were grown on glass coverslips. […] MDCK cells were transfected and induced with sodium butyrate as described above and stable cells lines were plated and induced as described for immunoblots. Cells were washed with PBS, fixed in 1% paraformaldehyde in PBS, extracted with 0.1% Triton-X 100 and quenched with 50 mM NH4Cl in PBS. In experiments to test the accessibility to the anti-peptide #1 antibody, incubation of the primary antibody was performed without permeabilization of cells with Triton-X 100. […] Cell Adhesion Assay Adhesion of stably transfected cell lines was measured by a modification of the procedure described by Wesseling, J., et al., Mol. Biol. Cell 7:565-577 (1996). […] After 30 minutes, cells were mechanically dissociated, counted and resuspended at a concentration of 2.5×10^5 cells/ml in Ca^2+-Mg^2+-free PBS, 1 mM EDTA and 0.1 mg/ml DNAse. […] At each time point, the number of particles in two 175 ul aliquot of each tube was determined in a Coulter Counter (Hialeah, FL). […] 100% of cells were single at the beginning of all assays, as determined by phase-contrast microscopy. […]
The ability of transfected occludin to confer adhesion onto fibroblast cell lines was assessed using a suspended cell aggregation assay (Wesseling, J., et al., Mol. Biol. Cell 7: 565-577 (1996)). […]

human occludin = biological target: T1, human occludin (human, UniProt Q16625 1-522); test: cell-based or functional assay
T1 sequence: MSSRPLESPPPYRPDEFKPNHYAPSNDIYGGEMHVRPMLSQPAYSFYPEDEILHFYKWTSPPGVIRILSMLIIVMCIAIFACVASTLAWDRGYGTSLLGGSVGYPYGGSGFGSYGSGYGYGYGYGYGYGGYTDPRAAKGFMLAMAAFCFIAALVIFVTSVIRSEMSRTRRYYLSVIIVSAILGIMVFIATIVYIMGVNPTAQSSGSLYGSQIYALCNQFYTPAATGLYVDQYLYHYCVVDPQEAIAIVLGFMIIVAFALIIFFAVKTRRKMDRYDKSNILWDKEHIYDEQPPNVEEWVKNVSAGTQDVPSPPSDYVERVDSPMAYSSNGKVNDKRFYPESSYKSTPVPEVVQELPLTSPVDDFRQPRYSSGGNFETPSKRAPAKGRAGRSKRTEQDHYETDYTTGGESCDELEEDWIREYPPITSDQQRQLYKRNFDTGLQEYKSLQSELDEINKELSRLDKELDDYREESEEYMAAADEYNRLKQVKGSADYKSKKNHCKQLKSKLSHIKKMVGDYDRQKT

CDRGYGTSLLGGSVGYPYGGSGFG [peptide #1]
inhibition of occludin-induced adhesion [1]: completely inhibited adhesion | reversal of adhesion ([1]; peptide at 10 μM): approximately half | inhibition of transepithelial (transmonolayer) electrical resistance (Caco-2 cells): inhibition | inhibition of occludin-induced adhesion [2]: completely inhibited adhesion

CSYGSGYGYGYGYGYGYGGYTDPR [peptide #2]
inhibition of occludin-induced adhesion [1]: completely inhibited adhesion | Ki ([1]; fibroblast adhesion assay, peptides tested at 1, 10 and 100 μM, read-out: apparent Ki (inhibition of adhesion)): 10 to 100 µM | inhibition of transepithelial (transmonolayer) electrical resistance (Caco-2 cells): inhibition | inhibition of occludin-induced adhesion [2]: completely inhibited adhesion

NHYAPSNDIYGGEMVHRPML (peptide construct used in experiments) [internal occludin peptide, reference compound]
inhibiting occludin-dependent cell adhesion ([1]; same concentration range (1, 10 and 100 μM)): ineffective

CDRGYGTSLLGGSVGYPYGGSGFG [peptide #1 (N-terminal half of occludin extracellular loop #1)]
apparent Ki for inhibition of occludin-induced adhesion (human occludin): ~10 µM
